# From paper PMC4904262 (ACS Medicinal Chemistry Letters, 2016)
# Columns and labels:
# TAK1 = TAK1 (Homo sapiens, UniProt O43318); conditions: 1 µM, ATP at Km
# [1] = mouse, in vivo, iv, 0.2 mg/kg
# phospho-STAT1^SER727 = conditions: single 5 mg/kg po dose; SW620 xenograft
# in vitro [2] = conditions: mouse, microsomes
# MSSK1 = MSSK1 (Homo sapiens, UniProt Q9UPE1); conditions: 1 µM, ATP at Km
# EPHA2 = EPHA2 (Homo sapiens, UniProt P29317); conditions: 1 µM, ATP at Km
# [3] = biological target: CDK8 in the presence of cyclin C (Homo sapiens, UniProt P49336); experiment: biochemical; conditions: read-out: CDK8 residence time ± SD
# in vitro [4] = conditions: mouse, plasma
# CK1GAMMA3 = CK1GAMMA3 (Homo sapiens, UniProt Q9Y6M4); conditions: 1 µM, ATP at Km
# CK1GAMMA3, sequence (Q9Y6M4 whole entry): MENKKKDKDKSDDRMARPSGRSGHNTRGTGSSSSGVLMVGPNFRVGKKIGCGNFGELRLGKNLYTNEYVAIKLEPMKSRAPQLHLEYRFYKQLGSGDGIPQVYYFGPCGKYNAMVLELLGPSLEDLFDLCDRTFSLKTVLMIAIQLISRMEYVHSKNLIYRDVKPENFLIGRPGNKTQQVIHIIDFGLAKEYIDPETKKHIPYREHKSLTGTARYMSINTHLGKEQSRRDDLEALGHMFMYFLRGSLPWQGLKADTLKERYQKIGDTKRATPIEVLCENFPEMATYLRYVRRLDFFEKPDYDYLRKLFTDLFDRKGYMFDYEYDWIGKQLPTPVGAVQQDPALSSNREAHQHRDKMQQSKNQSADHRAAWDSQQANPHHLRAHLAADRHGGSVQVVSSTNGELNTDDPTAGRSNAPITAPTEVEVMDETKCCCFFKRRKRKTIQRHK
# P70S6K = P70S6K (Homo sapiens, UniProt P23443); conditions: 1 µM, ATP at Km
# MAPKAP-K3 = MAPKAP-K3 (Homo sapiens, UniProt Q16644); conditions: 1 µM, ATP at Km
# MAPKAP-K2 = MAPKAP-K2 (Homo sapiens, UniProt P49137); conditions: 1 µM, ATP at Km
# IKKALPHA = IKKALPHA (Homo sapiens, UniProt O15111); conditions: 1 µM, ATP at Km
# IKKALPHA, sequence (O15111 whole entry): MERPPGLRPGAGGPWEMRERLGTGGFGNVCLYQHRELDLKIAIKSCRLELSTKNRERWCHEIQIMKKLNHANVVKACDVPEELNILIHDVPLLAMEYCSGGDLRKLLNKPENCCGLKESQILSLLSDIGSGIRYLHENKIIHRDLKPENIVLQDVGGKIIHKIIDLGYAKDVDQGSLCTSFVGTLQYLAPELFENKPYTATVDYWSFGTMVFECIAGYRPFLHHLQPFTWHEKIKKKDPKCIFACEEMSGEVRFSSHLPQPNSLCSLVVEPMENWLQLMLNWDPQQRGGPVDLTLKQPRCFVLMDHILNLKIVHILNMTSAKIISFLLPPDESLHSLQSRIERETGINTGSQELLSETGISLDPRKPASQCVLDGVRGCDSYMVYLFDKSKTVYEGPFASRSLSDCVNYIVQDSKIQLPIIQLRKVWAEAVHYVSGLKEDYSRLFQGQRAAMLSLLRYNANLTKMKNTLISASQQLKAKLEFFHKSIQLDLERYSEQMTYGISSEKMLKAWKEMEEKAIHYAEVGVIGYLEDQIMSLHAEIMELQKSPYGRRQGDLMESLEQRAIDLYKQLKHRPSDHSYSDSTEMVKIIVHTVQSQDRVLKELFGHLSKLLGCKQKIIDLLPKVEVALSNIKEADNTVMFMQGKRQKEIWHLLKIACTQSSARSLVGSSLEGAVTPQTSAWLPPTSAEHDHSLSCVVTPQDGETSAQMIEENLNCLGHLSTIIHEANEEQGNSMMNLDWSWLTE
# CDK9/CYCLINT1 = CDK9/CYCLINT1 (Homo sapiens, UniProt P50750); conditions: 1 µM, ATP at Km
# SGK3 = SGK3 (Homo sapiens, UniProt Q96BR1); conditions: 1 µM, ATP at Km
# SGK3, sequence (Q96BR1 whole entry): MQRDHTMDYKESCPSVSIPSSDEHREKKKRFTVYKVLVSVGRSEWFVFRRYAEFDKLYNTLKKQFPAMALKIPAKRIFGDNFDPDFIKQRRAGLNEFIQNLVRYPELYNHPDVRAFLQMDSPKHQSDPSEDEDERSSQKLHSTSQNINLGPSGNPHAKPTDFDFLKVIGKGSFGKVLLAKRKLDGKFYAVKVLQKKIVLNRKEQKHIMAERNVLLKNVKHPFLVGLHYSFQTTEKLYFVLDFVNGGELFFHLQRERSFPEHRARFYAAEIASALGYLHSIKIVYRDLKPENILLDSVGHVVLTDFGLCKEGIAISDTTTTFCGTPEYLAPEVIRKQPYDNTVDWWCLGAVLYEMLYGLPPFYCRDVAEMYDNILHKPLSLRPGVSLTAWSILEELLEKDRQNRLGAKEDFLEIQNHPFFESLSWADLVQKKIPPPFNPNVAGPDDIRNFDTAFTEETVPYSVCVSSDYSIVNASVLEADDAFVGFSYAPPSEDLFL
# in vitro [5] = conditions: human, microsomes
# PYK2 = PYK2 (Homo sapiens, UniProt Q14289); conditions: 1 µM, ATP at Km
# PYK2, sequence (Q14289 whole entry): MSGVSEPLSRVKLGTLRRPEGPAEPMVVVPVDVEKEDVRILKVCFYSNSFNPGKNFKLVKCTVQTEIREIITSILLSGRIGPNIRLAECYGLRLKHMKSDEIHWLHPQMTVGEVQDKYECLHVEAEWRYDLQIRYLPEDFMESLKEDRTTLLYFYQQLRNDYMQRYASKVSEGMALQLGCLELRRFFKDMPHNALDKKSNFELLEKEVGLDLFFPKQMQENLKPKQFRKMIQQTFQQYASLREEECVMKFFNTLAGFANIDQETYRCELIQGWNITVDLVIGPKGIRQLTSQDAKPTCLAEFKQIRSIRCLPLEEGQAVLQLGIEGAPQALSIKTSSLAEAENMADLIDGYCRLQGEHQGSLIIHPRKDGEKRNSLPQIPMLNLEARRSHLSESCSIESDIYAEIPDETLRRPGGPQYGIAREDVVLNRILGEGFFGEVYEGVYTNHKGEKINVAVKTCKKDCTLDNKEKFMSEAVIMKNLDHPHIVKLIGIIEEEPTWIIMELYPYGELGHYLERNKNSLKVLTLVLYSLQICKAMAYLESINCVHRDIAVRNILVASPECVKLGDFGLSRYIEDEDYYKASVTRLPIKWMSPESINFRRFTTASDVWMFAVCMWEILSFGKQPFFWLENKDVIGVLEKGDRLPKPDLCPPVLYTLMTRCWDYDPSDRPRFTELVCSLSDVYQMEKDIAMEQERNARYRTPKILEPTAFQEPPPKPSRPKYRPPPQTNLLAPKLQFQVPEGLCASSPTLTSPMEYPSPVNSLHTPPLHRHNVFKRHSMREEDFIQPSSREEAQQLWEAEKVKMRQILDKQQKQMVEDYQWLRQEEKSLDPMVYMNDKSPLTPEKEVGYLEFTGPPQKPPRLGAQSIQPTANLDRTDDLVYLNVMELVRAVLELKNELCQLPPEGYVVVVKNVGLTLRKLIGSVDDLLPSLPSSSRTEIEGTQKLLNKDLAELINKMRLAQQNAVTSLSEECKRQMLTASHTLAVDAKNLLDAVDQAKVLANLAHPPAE
# in vivo = conditions: rat
# MELK = MELK (Homo sapiens, UniProt Q14680); conditions: 1 µM, ATP at Km
# MELK, sequence (Q14680 whole entry): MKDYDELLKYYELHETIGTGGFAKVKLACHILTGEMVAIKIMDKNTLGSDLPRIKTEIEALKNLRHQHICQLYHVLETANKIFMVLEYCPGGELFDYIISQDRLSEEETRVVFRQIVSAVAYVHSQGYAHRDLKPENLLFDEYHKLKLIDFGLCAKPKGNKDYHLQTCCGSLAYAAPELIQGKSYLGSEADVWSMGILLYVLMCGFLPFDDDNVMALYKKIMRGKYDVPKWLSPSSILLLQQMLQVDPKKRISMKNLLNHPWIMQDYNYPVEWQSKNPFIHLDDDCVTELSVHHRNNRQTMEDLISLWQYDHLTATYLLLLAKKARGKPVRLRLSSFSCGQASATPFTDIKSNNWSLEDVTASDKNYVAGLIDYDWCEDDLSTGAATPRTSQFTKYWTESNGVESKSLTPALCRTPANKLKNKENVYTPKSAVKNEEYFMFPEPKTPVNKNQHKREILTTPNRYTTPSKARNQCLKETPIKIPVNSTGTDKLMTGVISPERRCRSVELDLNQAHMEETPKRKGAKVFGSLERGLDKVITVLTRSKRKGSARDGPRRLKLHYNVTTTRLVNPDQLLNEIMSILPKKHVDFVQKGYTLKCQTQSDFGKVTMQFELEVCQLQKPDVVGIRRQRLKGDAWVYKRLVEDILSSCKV
# FGFR1(V561M) = FGFR1(V561M) (Homo sapiens, UniProt P11362, V561M); conditions: 1 µM, ATP at Km
# EGFR(L861Q) = EGFR(L861Q) (Homo sapiens, UniProt P00533, L861Q); conditions: 1 µM, ATP at Km
# CKIT(V654A) = CKIT(V654A) (Homo sapiens, UniProt P10721, V654A); conditions: 1 µM, ATP at Km
# CHK2(R145W) = CHK2(R145W) (Homo sapiens, UniProt O96017, R145W); conditions: 1 µM, ATP at Km
# ABL (H396P) = ABL (H396P) (Homo sapiens, UniProt P00519, H396P); conditions: 1 µM, ATP at Km
# TIE2(Y897S) = TIE2(Y897S) (Homo sapiens, UniProt Q02763, Y897S); conditions: 1 µM, ATP at Km
# cMET (M1268T) = cMET (M1268T) (Homo sapiens, UniProt P08581, M1250T); conditions: 1 µM, ATP at Km
# FMS(Y969C) = FMS(Y969C) (Homo sapiens, UniProt P07333, Y969C); conditions: 1 µM, ATP at Km
# […](V561D) = […](V561D) (Homo sapiens, UniProt P16234, V561D); conditions: 1 µM, ATP at Km
# cMET (D1246N) = cMET (D1246N) (Homo sapiens, UniProt P08581, D1228N); conditions: 1 µM, ATP at Km
# TIE2(R849W) = TIE2(R849W) (Homo sapiens, UniProt Q02763, R849W); conditions: 1 µM, ATP at Km
# cMET (Y1248H) = cMET (Y1248H) (Homo sapiens, UniProt P08581, Y1230H); conditions: 1 µM, ATP at Km
# CKIT(V560G) = CKIT(V560G) (Homo sapiens, UniProt P10721, V560G); conditions: 1 µM, ATP at Km
# cMET (Y1248D) = cMET (Y1248D) (Homo sapiens, UniProt P08581, Y1230D); conditions: 1 µM, ATP at Km
# EGFR(T790M) = EGFR(T790M) (Homo sapiens, UniProt P00533, T790M); conditions: 1 µM, ATP at Km
# EGFR(L858R) = EGFR(L858R) (Homo sapiens, UniProt P00533, L858R); conditions: 1 µM, ATP at Km
# BTK(R28H) = BTK(R28H) (Homo sapiens, UniProt Q06187, R28H); conditions: 1 µM, ATP at Km
# ABL(Y253F) = ABL(Y253F) (Homo sapiens, UniProt P00519, Y253F); conditions: 1 µM, ATP at Km
# cMET (Y1248C) = cMET (Y1248C) (Homo sapiens, UniProt P08581, Y1230C); conditions: 1 µM, ATP at Km
# CKIT(D816H) = CKIT(D816H) (Homo sapiens, UniProt P10721, D816H); conditions: 1 µM, ATP at Km
# ABL (M351T) = ABL (M351T) (Homo sapiens, UniProt P00519, M351T); conditions: 1 µM, ATP at Km
# CKIT(D816V) = CKIT(D816V) (Homo sapiens, UniProt P10721, D816V); conditions: 1 µM, ATP at Km
# EPHA2, sequence (P29317 24-976): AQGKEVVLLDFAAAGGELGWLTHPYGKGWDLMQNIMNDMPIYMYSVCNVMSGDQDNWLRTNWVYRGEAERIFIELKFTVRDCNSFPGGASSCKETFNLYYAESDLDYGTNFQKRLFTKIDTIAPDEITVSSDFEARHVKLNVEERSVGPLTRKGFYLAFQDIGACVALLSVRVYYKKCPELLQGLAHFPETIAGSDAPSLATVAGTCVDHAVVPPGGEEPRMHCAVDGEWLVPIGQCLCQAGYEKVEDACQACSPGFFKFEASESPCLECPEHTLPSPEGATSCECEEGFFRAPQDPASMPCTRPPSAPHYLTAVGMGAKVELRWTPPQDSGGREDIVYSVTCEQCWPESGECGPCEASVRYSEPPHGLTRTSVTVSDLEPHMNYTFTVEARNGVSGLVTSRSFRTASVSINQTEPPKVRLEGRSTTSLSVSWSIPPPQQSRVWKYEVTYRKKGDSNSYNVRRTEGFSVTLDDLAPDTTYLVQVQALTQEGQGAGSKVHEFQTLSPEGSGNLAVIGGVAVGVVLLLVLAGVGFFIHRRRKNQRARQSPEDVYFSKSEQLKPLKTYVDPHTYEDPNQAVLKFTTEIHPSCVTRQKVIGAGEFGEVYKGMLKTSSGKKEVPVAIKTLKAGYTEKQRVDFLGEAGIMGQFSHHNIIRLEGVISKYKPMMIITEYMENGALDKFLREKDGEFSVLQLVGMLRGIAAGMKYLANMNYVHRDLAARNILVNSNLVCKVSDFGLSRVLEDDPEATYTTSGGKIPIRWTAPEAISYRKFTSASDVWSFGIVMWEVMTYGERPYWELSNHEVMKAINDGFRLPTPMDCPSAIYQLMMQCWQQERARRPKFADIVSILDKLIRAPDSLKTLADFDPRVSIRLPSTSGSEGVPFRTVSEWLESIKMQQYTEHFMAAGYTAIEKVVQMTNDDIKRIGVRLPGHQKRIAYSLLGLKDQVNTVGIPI
# MSSK1, sequence (Q9UPE1 whole entry): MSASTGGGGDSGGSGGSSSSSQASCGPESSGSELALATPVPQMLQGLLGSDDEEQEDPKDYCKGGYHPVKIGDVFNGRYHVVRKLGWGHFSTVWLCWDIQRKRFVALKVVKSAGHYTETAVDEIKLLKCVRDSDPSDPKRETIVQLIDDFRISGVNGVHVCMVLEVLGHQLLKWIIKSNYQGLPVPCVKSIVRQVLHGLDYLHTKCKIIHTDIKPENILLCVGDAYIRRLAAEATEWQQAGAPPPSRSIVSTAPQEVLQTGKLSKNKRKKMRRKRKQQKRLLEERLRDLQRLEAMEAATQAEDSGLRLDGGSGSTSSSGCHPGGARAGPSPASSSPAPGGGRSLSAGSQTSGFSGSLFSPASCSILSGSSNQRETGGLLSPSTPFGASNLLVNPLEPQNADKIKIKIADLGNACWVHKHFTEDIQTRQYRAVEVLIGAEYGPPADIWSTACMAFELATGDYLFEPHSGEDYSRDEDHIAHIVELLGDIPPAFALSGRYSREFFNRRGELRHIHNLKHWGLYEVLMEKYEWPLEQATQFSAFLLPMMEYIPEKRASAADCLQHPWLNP
smiles,measurement,setting,value
COC1CN(C(=O)c2ccc3c(N)ncc(-c4ccc(-c5cnn(C)c5)cc4)c3n2)C1 [Compound 51],percentage effect,TAK1,-9%
same,% in feces (iv dosing),[1],31%
same,inhibition of phospho-STAT1^SER727 in tumor xenograft,phospho-STAT1^SER727,time-dependent inhibition of phospho-STAT1^SER727
same,microsomal CLint at 1 µM,in vitro [2],52 µL/min/mg
same,percentage effect,MSSK1,7%
same,percentage effect,EPHA2,-12%
same,residence time,[3],15 ± 2 min
same,fraction unbound,in vitro [4],0.038
same,percentage effect,CK1GAMMA3,-18%
same,percentage effect,P70S6K,-25%
same,percentage effect,MAPKAP-K3,-15%
same,percentage effect,MAPKAP-K2,6%
same,percentage effect,IKKALPHA,-17%
same,percentage effect,CDK9/CYCLINT1,8%
same,percentage effect,SGK3,-13%
same,microsomal CLint at 1 µM,in vitro [5],61 µL/min/mg
same,percentage effect,PYK2,-4%
same,Vd,"in vivo; iv, 0.2 mg/kg",2.13 L/kg
same,clearance,"in vivo; iv, 0.2 mg/kg",21.5 mL/min/kg
same,bioavailability,"in vivo; po, 0.5 mg/kg",57%
same,percentage effect,MELK,-10%
COC1CN(C(=O)c2ccc3c(N)ncc(-c4ccc(-c5cnn(C)c5)cc4)c3c2)C1 [Compound 59],percentage effect,FGFR1(V561M),-6%
same,percentage effect,TAK1,-13%
same,percentage effect,EGFR(L861Q),-9%
same,percentage effect,CKIT(V654A),6%
same,percentage effect,MSSK1,13%
same,percentage effect,EPHA2,7%
same,percentage effect,CHK2(R145W),-6%
same,percentage effect,ABL (H396P),5%
same,percentage effect,TIE2(Y897S),-6%
same,percentage effect,cMET (M1268T),5%
same,percentage effect,CK1GAMMA3,19%
same,percentage effect,FMS(Y969C),-31%
same,percentage effect,[…](V561D),-9%
same,percentage effect,cMET (D1246N),3%
same,percentage effect,TIE2(R849W),-12%
same,percentage effect,cMET (Y1248H),6%
same,percentage effect,CKIT(V560G),-21%
same,percentage effect,IKKALPHA,28%
same,percentage effect,cMET (Y1248D),19%
same,percentage effect,EGFR(T790M),-2%
same,percentage effect,EGFR(L858R),-15%
same,percentage effect,BTK(R28H),-12%
same,percentage effect,SGK3,9%
same,percentage effect,ABL(Y253F),-6%
same,percentage effect,cMET (Y1248C),-19%
same,percentage effect,PYK2,-1%
same,percentage effect,CKIT(D816H),-1%
same,percentage effect,ABL (M351T),2%
same,percentage effect,CKIT(D816V),-3%
same,percentage effect,MELK,-8%
